In patent publication US20200016159A1, “N3-CYCLICALLY SUBSTITUTED THIENOURACILS AND USE THEREOF” (Bayer Aktiengesellschaft, priority 2016, published 2020):

Target: T1, human adenosine A2b receptor (Homo sapiens, UniProt P29275)
T1 sequence (P29275 1-332): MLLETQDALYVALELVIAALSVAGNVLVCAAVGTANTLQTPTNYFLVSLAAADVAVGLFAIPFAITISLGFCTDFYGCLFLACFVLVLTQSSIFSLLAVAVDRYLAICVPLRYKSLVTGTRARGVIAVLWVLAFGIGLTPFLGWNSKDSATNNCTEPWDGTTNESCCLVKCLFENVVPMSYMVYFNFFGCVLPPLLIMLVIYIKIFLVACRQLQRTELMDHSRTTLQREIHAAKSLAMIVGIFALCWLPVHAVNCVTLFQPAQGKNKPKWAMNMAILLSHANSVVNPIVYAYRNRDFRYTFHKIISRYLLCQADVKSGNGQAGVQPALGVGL
Experiment: Cellular in vitro reporter gene test for A2b receptor activity (antagonism of NECA)
Assay type: cell-based
Set-up: expressed in transfected cells; host or cells: CHO-K1 (Chinese hamster ovary) with CRE-luciferase reporter
Conditions: recombinant CHO-K1 cells, CRE-luciferase reporter, co-incubation with EC50 concentration of NECA, 3 hours
Outline: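 Antagonism measured as block of NECA-induced, cAMP/CRE-dependent luciferase expression in recombinant A2b CHO-K1 cells. NECA used at the EC50 set in a pre-experiment on each test day; luminescence detected after 3 h. Reported as IC50, partly averaged and rounded to two significant figures.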

SMILES | IC50 [nM]
Cc1c(CN2CCNC(=O)C2=O)sc2c1c(=O)n(C1COC1)c(=O)n2CCC(F)(F)F [Example 133, 6-[(2,3-Dioxopiperazin-1-yl)methyl]-5-methyl-3-(oxetan-3-yl)-1-(3,3,3-trifluoropropyl)thieno[2,3-d]pyrimidine-2,4(1H,3H)-dione] | 430
Cc1c(CN2CCNC2=NC#N)sc2c1c(=O)n(C1(C)CCC1)c(=O)n2CCC(F)(F)F [Example 135, [1-{[5-Methyl-3-(1-methylcyclobutyl)-2,4-dioxo-1-(3,3,3-trifluoropropyl)-1,2,3,4-tetrahydrothieno[2,3-d]pyrimidin-6-yl]methyl}imidazolidin-2-ylidene]cyanamide] | 48
Cc1c(CN2CCNC(=O)C2=O)sc2c1c(=O)n(C1(C)CCC1)c(=O)n2CCC(F)(F)F [Example 137, 6-[(2,3-Dioxopiperazin-1-yl)methyl]-5-methyl-3-(1-methylcyclobutyl)-1-(3,3,3-trifluoropropyl)thieno[2,3-d]pyrimidine-2,4(1H,3H)-dione] | 77
Cc1c(Cn2nc[nH]c2=O)sc2c1c(=O)n(C1(C)CCC1)c(=O)n2CCC(F)(F)F [Example 138, 5-Methyl-3-(1-methylcyclobutyl)-6-[(5-oxo-4,5-dihydro-1H-1,2,4-triazol-1-yl)methyl]-1-(3,3,3-trifluoropropyl)thieno[2,3-d]pyrimidine-2,4(1H,3H)-dione] | 260
COCCn1c(=O)n(C2(C)CCC2)c(=O)c2c(C)c(CN3CCNC3=O)sc21 [Example 139, 1-(2-Methoxyethyl)-5-methyl-3-(1-methylcyclobutyl)-6-[(2-oxoimidazolidin-1-yl)methyl]thieno[2,3-d]pyrimidine-2,4(1H,3H)-dione] | 310
COCCn1c(=O)n(C2(C)CCC2)c(=O)c2c(C)c(CN3CCNC3=NC#N)sc21 [Example 140, [1-{[1-(2-Methoxyethyl)-5-methyl-3-(1-methylcyclobutyl)-2,4-dioxo-1,2,3,4-tetrahydrothieno[2,3-d]pyrimidin-6-yl]methyl}imidazolidine-2-ylidene]cyanamide] | 230
COCCn1c(=O)n(C2(C)CCC2)c(=O)c2c(C)c(CN3CCNC3=NC(=O)OC)sc21 [Example 141, Methyl [1-{[1-(2-methoxyethyl)-5-methyl-3-(1-methylcyclobutyl)-2,4-dioxo-1,2,3,4-tetrahydrothieno[2,3-d]pyrimidin-6-yl]methyl}imidazolidine-2-ylidene]carbamate] | 110
COCCn1c(=O)n(C2(C)CCC2)c(=O)c2c(C)c(CN3CCNC(=O)C3=O)sc21 [Example 142, 6-[(2,3-Dioxopiperazin-1-yl)methyl]-1-(2-methoxyethyl)-5-methyl-3-(1-methylcyclobutyl)thieno[2,3-d]pyrimidine-2,4(1H,3H)-dione] | 460
COCCn1c(=O)n(C2(C)CCC2)c(=O)c2c(C)c(Cn3nc[nH]c3=O)sc21 [Example 143, 1-(2-Methoxyethyl)-5-methyl-3-(1-methylcyclobutyl)-6-[(5-oxo-4,5-dihydro-H-1,2,4-triazol-1-yl)methyl]thieno[2,3-d]pyrimidine-2,4(1H,3H)-dione] | 880
CO[C@H]1C[C@H](n2c(=O)c3c(C)c(CN4CCNC(=O)C4=O)sc3n(CCC(F)(F)F)c2=O)C1 [Example 147, 6-[(2,3-Dioxopiperazin-1-yl)methyl]-3-(trans-3-methoxycyclobutyl)-5-methyl-1-(3,3,3-trifluoropropyl)thieno[2,3-d]pyrimidine-2,4(1H,3H)-dione] | 48
CO[C@H]1C[C@H](n2c(=O)c3c(C)c(Cn4nc[nH]c4=O)sc3n(CCC(F)(F)F)c2=O)C1 [Example 148, 3-(trans-3-Methoxycyclobutyl)-5-methyl-6-[(5-oxo-4,5-dihydro-1H-1,2,4-triazol-1-yl)methyl]-1-(3,3,3-trifluoropropyl)thieno[2,3-d]pyrimidine-2,4(1H,3H)-dione] | 66
COCCn1c(=O)n([C@H]2C[C@H](OC)C2)c(=O)c2c(C)c(CN3CCNC3=O)sc21 [Example 149, 3-(trans-3-Methoxycyclobutyl)-1-(2-methoxyethyl)-5-methyl-6-[(2-oxoimidazolidin-1-yl)methyl]thieno[2,3-d]pyrimidine-2,4(1H,3H)-dione] | 82
COCCn1c(=O)n([C@H]2C[C@H](OC)C2)c(=O)c2c(C)c(CN3CCNC3=NC#N)sc21 [Example 150, [1-{[3-(trans-3-Methoxycyclobutyl)-1-(2-methoxyethyl)-5-methyl-2,4-dioxo-1,2,3,4-tetrahydrothieno[2,3-d]pyrimidin-6-yl]methyl}imidazolidin-2-ylidene]cyanamide] | 120
COCCn1c(=O)n([C@H]2C[C@H](OC)C2)c(=O)c2c(C)c(CN3CCNC3=NC(=O)OC)sc21 [Example 151, Methyl [1-{[3-(trans-3-methoxycyclobutyl)-1-(2-methoxyethyl)-5-methyl-2,4-dioxo-1,2,3,4-tetrahydrothieno[2,3-d]pyrimidin-6-yl]methyl}imidazolidin-2-ylidene]carbamate] | 45
COCCn1c(=O)n([C@H]2C[C@H](OC)C2)c(=O)c2c(C)c(CN3CCNC(=O)C3=O)sc21 [Example 152, 6-[(2,3-Dioxopiperazin-1-yl)methyl]-3-(trans-3-methoxycyclobutyl)-1-(2-methoxyethyl)-5-methylthieno[2,3-d]pyrimidine-2,4(1H,3H)-dione] | 340
COCCn1c(=O)n([C@H]2C[C@H](OC)C2)c(=O)c2c(C)c(Cn3nc[nH]c3=O)sc21 [Example 153, 3-(trans-3-Methoxycyclobutyl)-1-(2-methoxyethyl)-5-methyl-6-[(5-oxo-4,5-dihydro-1H-1,2,4-triazol-1-yl)methyl]thieno[2,3-d]pyrimidine-2,4(1H,3H)-dione] | 220
CO[C@H]1C[C@@H](n2c(=O)c3c(C)c(CN4CCNC4=NC#N)sc3n(CCC(F)(F)F)c2=O)C1 [Example 155, [1-{[3-(cis-3-Methoxycyclobutyl)-5-methyl-2,4-dioxo-1-(3,3,3-trifluoropropyl)-1,2,3,4-tetrahydrothieno[2,3-d]pyrimidin-6-yl]methyl}imidazolidin-2-ylidene]cyanamide] | 56

Molecules with a lower IC50, results first:

IC50 [nM] | SMILES
11 | COC(=O)N=C1NCCN1Cc1sc2c(c1C)c(=O)n(C1COC1)c(=O)n2CCC(F)(F)F [Example 132, Methyl [1-{[5-methyl-3-(oxetan-3-yl)-2,4-dioxo-1-(3,3,3-trifluoropropyl)-1,2,3,4-tetrahydrothieno[2,3-d]pyrimidin-6-yl]methyl}imidazolidin-2-ylidene]carbamate]
34 | Cc1c(CN2CCNC2=O)sc2c1c(=O)n(C1(C)CCC1)c(=O)n2CCC(F)(F)F [Example 134, 5-Methyl-3-(1-methylcyclobutyl)-6-[(2-oxoimidazolidin-1-yl)methyl]-1-(3,3,3-trifluoropropyl)thieno[2,3-d]pyrimidine-2,4(1H,3H)-dione]
19 | COC(=O)N=C1NCCN1Cc1sc2c(c1C)c(=O)n(C1(C)CCC1)c(=O)n2CCC(F)(F)F [Example 136, Methyl [1-{[5-methyl-3-(1-methylcyclobutyl)-2,4-dioxo-1-(3,3,3-trifluoropropyl)-1,2,3,4-tetrahydrothieno[2,3-d]pyrimidin-6-yl]methyl}imidazolidin-2-ylidene]carbamate]
10 | CO[C@H]1C[C@H](n2c(=O)c3c(C)c(CN4CCNC4=O)sc3n(CCC(F)(F)F)c2=O)C1 [Example 144, 3-(trans-3-Methoxycyclobutyl)-5-methyl-6-[(2-oxoimidazolidin-1-yl)methyl]-1-(3,3,3-trifluoropropyl)thieno[2,3-d]pyrimidine-2,4(1H,3H)-dione]
23 | CO[C@H]1C[C@H](n2c(=O)c3c(C)c(CN4CCNC4=NC#N)sc3n(CCC(F)(F)F)c2=O)C1 [Example 145, [1-{[3-(trans-3-Methoxycyclobutyl)-5-methyl-2,4-dioxo-1-(3,3,3-trifluoropropyl)-1,2,3,4-tetrahydrothieno[2,3-d]pyrimidin-6-yl]methyl}imidazolidin-2-ylidene]cyanamide]
6.2 | COC(=O)N=C1NCCN1Cc1sc2c(c1C)c(=O)n([C@H]1C[C@H](OC)C1)c(=O)n2CCC(F)(F)F [Example 146, Methyl [1-{[3-(trans-3-methoxycyclobutyl)-5-methyl-2,4-dioxo-1-(3,3,3-trifluoropropyl)-1,2,3,4-tetrahydrothieno[2,3-d]pyrimidin-6-yl]methyl}imidazolidin-2-ylidene]carbamate]
23 | CO[C@H]1C[C@@H](n2c(=O)c3c(C)c(CN4CCNC4=O)sc3n(CCC(F)(F)F)c2=O)C1 [Example 154, 3-(cis-3-Methoxycyclobutyl)-5-methyl-6-[(2-oxoimidazolidin-1-yl)methyl]-1-(3,3,3-trifluoropropyl)thieno[2,3-d]pyrimidine-2,4(1H,3H)-dione]
18 | COC(=O)N=C1NCCN1Cc1sc2c(c1C)c(=O)n([C@H]1C[C@@H](OC)C1)c(=O)n2CCC(F)(F)F [Example 156, Methyl [1-{[3-(cis-3-methoxycyclobutyl)-5-methyl-2,4-dioxo-1-(3,3,3-trifluoropropyl)-1,2,3,4-tetrahydrothieno[2,3-d]pyrimidin-6-yl]methyl}imidazolidin-2-ylidene]carbamate]
